Literature values as cited in PubChem BioAssay AID1259409 (Chemical Carcinogenesis Research Information System (CCRIS), 2018).

Test system: rodent chemically induced tumor inhibition, incidence and multiplicity
Experiment: CCRIS tumor inhibitor studies
Conditions: for outcome: Strain/Sex: SENCAR/FEMALE, Target Tissue: Type of Lesion: SKIN: TUMOR, Dose [Carcinogen]: 40 NMOL IN 0.2 ML ACETONE ONCE

CC1(C)[C@@H](O)CC[C@]2(C)[C@H]3C(=O)C=C4[C@@H]5C[C@@](C)(C(=O)O)CC[C@]5(C)CC[C@@]4(C)[C@]3(C)CC[C@@H]12
outcome (Carcinogen: 7,12-DIMETHYLBENZ[A]ANTHRACENE, 57-97-6, Dose [Inhibitor]: 0, 10 UMOL IN 0.2 ML DMSO/ACETONE (1:2) 1/D BEGINNING 7 D PRIOR TO CARCINOGEN DOSE (STUDY DURATION: 16 WK), Route [Inhibitor]: DERMAL, Species: MOUSE): 100%, 45%, 55%, not calculated at 9 wk; 100%, 85%, 15%, not calculated at 16 wk | outcome (Carcinogen: 7,12-DIMETHYLBENZ[A]ANTHRACENE, 57-97-6, Dose [Inhibitor]: 0, 30 UMOL IN DMSO/ACETONE (1:2) 30 MIN PRIOR TO EACH PROMOTER DOSE (STUDY DURATION: 16 WK), Route [Inhibitor]: DERMAL, Species: MOUSE): 100%, 40%, 60%, not calculated at 9 wk; 100%, 80%, 20%, not calculated at 16 wk | tumour outcome (control, treated, inhibition, significance) (Carcinogen: 7,12-DIMETHYLBENZ[A]ANTHRACENE, 57-97-6, Dose [Inhibitor]: 10 UMOL APPLIED 40 MINUTES PRIOR TO PROMOTER DOSE (STUDY DURATION: 20 WK), Route [Inhibitor]: DERMAL, Species: MOUSE, Strain/Sex: ICR/FEMALE, Target Tissue: Type of Lesion: SKIN: PAPILLOMA, Dose [Carcinogen]: 100 UG ONCE): 100%, 40%, 60%, p<0.05 | tumour outcome (control, treated, inhibition, significance) (Carcinogen: AZOXYMETHANE, 25843-45-2, Dose [Inhibitor]: 0, 1200 PPM IN DIET BEGINNING 1 WK PRIOR TO CARCINOGEN TREATMENT FOR DURATION OF STUDY (STUDY DURATION: 54 WK), Route [Inhibitor]: ORAL, Species: RAT, Strain/Sex: F344/MALE, Target Tissue: Type of Lesion: COLON: ADENOCARCINOMA, Dose [Carcinogen]: 15 MG/KG/BW 1/WK FOR 2 WK, Promoter: NONE USED): 58%, 78%, -35%, not calculated | tumour outcome (control, treated, inhibition, significance) (Carcinogen: AZOXYMETHANE, 25843-45-2, Dose [Inhibitor]: 0, 1200 PPM IN DIET BEGINNING 1 WK PRIOR TO CARCINOGEN TREATMENT FOR DURATION OF STUDY (STUDY DURATION: 54 WK), Route [Inhibitor]: ORAL, Species: RAT, Strain/Sex: F344/MALE, Target Tissue: Type of Lesion: COLON: ADENOMA, Dose [Carcinogen]: 15 MG/KG/BW 1/WK FOR 2 WK, Promoter: NONE USED): 6%, 6%, 0%, not calculated | tumour outcome (control, treated, inhibition, significance) (Carcinogen: AZOXYMETHANE, 25843-45-2, Dose [Inhibitor]: 0, 2400 PPM IN DIET BEGINNING 1 WK PRIOR TO CARCINOGEN TREATMENT FOR DURATION OF STUDY (STUDY DURATION: 54 WK), Route [Inhibitor]: ORAL, Species: RAT, Strain/Sex: F344/MALE, Target Tissue: Type of Lesion: COLON: ADENOMA, Dose [Carcinogen]: 15 MG/KG/BW 1/WK FOR 2 WK, Promoter: NONE USED): 6%, 6%, 0%, not significant | tumour outcome (control, treated, inhibition, significance) (Carcinogen: AZOXYMETHANE, 25843-45-2, Dose [Inhibitor]: 0, 2400 PPM IN DIET BEGINNING 1 WK PRIOR TO CARCINOGEN TREATMENT OF DURATION OF STUDY (STUDY DURATION: 54 WK), Route [Inhibitor]: ORAL, Species: RAT, Strain/Sex: F344/MALE, Target Tissue: Type of Lesion: COLON: ADENOCARCINOMA, Dose [Carcinogen]: 15 MG/KG/BW 1/WK FOR 2 WK, Promoter: NONE USED): 58%, 53%, 9%, not calculated

Clc1ccc(-c2cc(Cl)c(Cl)c(Cl)c2)cc1Cl
tumour outcome (control, treated, inhibition, significance) (Carcinogen: 7,12-DIMETHYLBENZ[A]ANTHRACENE, 57-97-6, Dose [Inhibitor]: 0, 2.5 NG/KG BW ADMINISTERED INTRAGASTRICALLY TO MOTHERS ON DAYS 13 TO 19 POST-CONCEPTION (STUDY DURATION: 178 D), Route [Inhibitor]: IN UTERO, ORAL, Species: RAT, Strain/Sex: SD/FEMALE, Target Tissue: Type of Lesion: MAMMARY GLAND: TUMOR, Dose [Carcinogen]: 20 MG/KG BW ADMINISTERED TO 50-DAY OLD OFFSPRING): 93%, 93%, 0%, not significant | tumour outcome (control, treated, inhibition, significance) (Carcinogen: 7,12-DIMETHYLBENZ[A]ANTHRACENE, 57-97-6, Dose [Inhibitor]: 0, 7.5 UG/KG BW ADMINISTERED INTRAGASTRICALLY TO MOTHERS ON DAYS 13 TO 19 POST-CONCEPTION (STUDY DURATION: 178 D), Route [Inhibitor]: IN UTERO, ORAL, Species: RAT, Strain/Sex: SD/FEMALE, Target Tissue: Type of Lesion: MAMMARY GLAND: TUMOR, Dose [Carcinogen]: 20 MG/KG BW ADMINISTERED TO 50-DAY OLD OFFSPRING): 93%, 78%, 17%, p<0.05 | tumour outcome (control, treated, inhibition, significance) (Carcinogen: 7,12-DIMETHYLBENZ[A]ANTHRACENE, 57-97-6, Dose [Inhibitor]: 0, 250 NG/KG BW ADMINISTERED INTRAGASTRICALLY TO MOTHERS ON DAYS 13 TO 19 POST-CONCEPTION (STUDY DURATION: 178 D), Route [Inhibitor]: IN UTERO, ORAL, Species: RAT, Strain/Sex: SD/FEMALE, Target Tissue: Type of Lesion: MAMMARY GLAND: TUMOR, Dose [Carcinogen]: 20 MG/KG BW ADMINISTERED TO 50-DAY OLD OFFSPRING): 93%, 96%, -3%, not significant

COc1ccc2cc1Oc1ccc(cc1)C[C@H]1c3cc(c(OC)cc3CCN1C)Oc1c(OC)c(OC)cc3c1[C@@H](C2)N(C)CC3
tumour outcome (control, treated, inhibition, significance) (Carcinogen: 7,12-DIMETHYLBENZ[A]ANTHRACENE, 57-97-6, Dose [Inhibitor]: 0, 2 UMOL 2/WK 30 MIN PRIOR TO EACH PROMOTER DOSE BEGINNING 1 WK POST CARCINOGEN DOSE (STUDY DURATION: 18 WK), Route [Inhibitor]: DERMAL, Species: MOUSE, Strain/Sex: ICR/FEMALE, Target Tissue: Type of Lesion: SKIN: PAPILLOMA, Dose [Carcinogen]: 50 UG ONCE, Promoter: 12-O-TETRADECANOYLPHORBOL-13-ACETATE, 16561-29-8): 100%, 27%, 73%, not calculated

CCCCCCCCCCCCC/C=C/[C@@H](O)[C@H](COP(=O)(O)OCC[N+](C)(C)C)NC=O
tumour outcome (control, treated, inhibition, significance) (Carcinogen: 1,2-DIMETHYLHYDRAZINE DIHYDROCHLORIDE, 306-37-6, Dose [Inhibitor]: 0, 0.025 G/100 G DIET FOR 28 WK BEGINNING 1 WK POST CARCINOGEN TREATMENT (STUDY DURATION: 59 WK), Route [Inhibitor]: ORAL, Species: MOUSE, Strain/Sex: CF-1/FEMALE, Target Tissue: Type of Lesion: COLON: TUMOR, Dose [Carcinogen]: 20 MG/KG BW 1/WK FOR 6 WK, Promoter: NONE USED): 7/15 (47%), 2/10 (20%), 57%, p=0.08 | tumour outcome (control, treated, inhibition, significance) (Carcinogen: 1,2-DIMETHYLHYDRAZINE DIHYDROCHLORIDE, 306-37-6, Dose [Inhibitor]: 0, 0.05 G/100 G DIET FOR 28 WK BEGINNING 1 WK POST CARCINOGEN TREATMENT (STUDY DURATION: 59 WK), Route [Inhibitor]: ORAL, Species: MOUSE, Strain/Sex: CF-1/FEMALE, Target Tissue: Type of Lesion: COLON: TUMOR, Dose [Carcinogen]: 20 MG/KG BW 1/WK FOR 6 WK, Promoter: NONE USED): 7/15 (47%), 3/14 (21%), 55%, p=0.08 | tumour outcome (control, treated, inhibition, significance) (Carcinogen: 1,2-DIMETHYLHYDRAZINE DIHYDROCHLORIDE, 306-37-6, Dose [Inhibitor]: 0, 0.1 G/100 G DIET FOR 28 WK BEGINNING 1 WK POST CARCINOGEN TREATMENT (STUDY DURATION: 59 WK), Route [Inhibitor]: ORAL, Species: MOUSE, Strain/Sex: CF-1/FEMALE, Target Tissue: Type of Lesion: COLON: TUMOR, Dose [Carcinogen]: 20 MG/KG BW 1/WK FOR 6 WK, Promoter: NONE USED): 7/15 (47%), 2/10 (20%), 57%, p=0.08
